The conditions of test [1]: old mice (21 months), 1.6 g/kg food glycine in diet for 6 weeks, vs old control diet and young (4 months) mice.
From the text: 28 wild-type C57BL/6J mice of 21-months old and 12 wild-type C57BL/6J mice of 4-months old were kept in a temperature-and humidity-controlled environment with a 12:12-h light-dark cycle. Mice had access to nesting and enrichment materials and were provided with ad libitum access to water and food.
(§1) Mice underwent to a dietary supplementation for 6 weeks. The young control group (n=12) and old control group (n=14) received a commercial standard powdered diet (Safe 150, Safe Diets), with 20% humidity. […] At the end of the treatment, mice were euthanized with isoflurane after 2-hours fasting. Muscle gastrocnemius has been dissected and samples were snap frozen in liquid nitrogen and stored at −80° C.
Tissue pieces were excised on dry ice with liquid nitrogen cooled scalpels and kept at −80° C. until extraction. For extraction, samples were homogenized in 300 μL −20 ° C. methanol/water (5:3), including a fully labelled 13C yeast biomass as internal standard, using 5 mm stainless steel beads in a tissue grinder (Qiagen TissueLyser II) for up to 3 min at 23 Hz. […] The protein pellets were quantified with a bicinchoninic acid assay for later normalization and the polar phases, containing the metabolites of interest, were dried overnight in a vacuum centrifuge at 4° C. and 5 mbar and stored at −80° C. until analysis. […]
The conditions of test [2]: old mice (21 months), 1.6 g/kg food glycine in diet for 6 weeks, compared to old mice with control diet.
Method: All animal experiments were performed according to national Swiss and EU ethical guidelines and approved by the local animal experimentation committee under license VD3519. 28 wild-type C57BL/6J mice of 21-months old and 12 wild-type C57BL/6J mice of 4-months old were kept in a temperature-and humidity-controlled environment with a 12:12-h light-dark cycle. Mice had access to nesting and enrichment materials and were provided with ad libitum access to water and food.
as §1
DNA extraction was performed on 100 mg of muscle using QIAGEN DNeasy Blood and Tissue kit (Cat. No: 69506) and following manufacturer recommendations. DNA was quantified using the DropSense technology (Unchained Labs). […]
Raw data were sent to the Clock Foundation, who performed the analyses to calculate the biological age of the samples. […] Data were plotted and analysed using R. One-tailed parametric t statistics was performed to test the effect of the glycine supplementation compared to the control diet.

For the compound `NCC(=O)O` [glycine], the “glycine levels in muscle” value in test [1] was “significantly restores them toward young levels”. Moreover, the “biological age (DNA methylation, muscle specific clock)” value in test [2] is recorded as “biological age decreases significantly”.

The values above are taken from patent publication US20260124166A1, “COMPOSITIONS AND METHODS USING GLYCINE TO REDUCE BIOLOGICAL AGE OF AN ADULT ANIMAL” (Société des Produits Nestlé S.A., priority 2022, published 2026).
